# Measurements published in patent US20240217978A1 (CHONG KUN DANG PHARMACEUTICAL CORP., priority 2021, published 2024).
# Biological target: human adenosine A2a receptor (Homo sapiens (Human), UniProt P29274)
# Test: A2a receptor binding affinity, [3H]-NECA radioligand binding test
# Settings: [3H]-NECA 37 nM; membrane from HEK-293 cells transfected with human adenosine A2a receptor
# How it was run: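 IC50 values (μM) come from displacement of [3H]-NECA, used at 37 nM final, on human A2a receptor membranes from transfected HEK-293 cells. Incubation lasted one hour at room temperature in Tris/MgCl2/EDTA buffer, pH 7.4; filter-bound radioactivity was counted by scintillation.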
# human adenosine A2a receptor, sequence (P29274 whole entry): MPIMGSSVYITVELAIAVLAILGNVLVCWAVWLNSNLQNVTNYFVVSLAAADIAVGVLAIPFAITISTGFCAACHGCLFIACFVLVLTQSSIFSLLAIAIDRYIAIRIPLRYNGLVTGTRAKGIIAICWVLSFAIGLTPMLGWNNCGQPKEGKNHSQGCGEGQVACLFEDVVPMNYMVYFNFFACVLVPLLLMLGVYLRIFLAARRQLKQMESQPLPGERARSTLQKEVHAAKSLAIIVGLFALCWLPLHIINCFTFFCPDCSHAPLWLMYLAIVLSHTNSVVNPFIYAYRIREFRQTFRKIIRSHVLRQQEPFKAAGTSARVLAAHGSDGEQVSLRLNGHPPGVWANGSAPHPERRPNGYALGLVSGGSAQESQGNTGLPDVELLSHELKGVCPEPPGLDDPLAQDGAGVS
row,SMILES,IC50 [nM]
1,Nc1nc(N[C@@H](CO)C(=O)N2CCN(c3ccccc3)C(=O)C2)nc2nc(-c3ccco3)nn12 [Example 234],12
2,"COCCOc1ccc(N2CCN(C(=O)[C@@H]3CCCN3c3nc(N)n4nc(-c5ccco5)nc4n3)CC2)cc1 [Example 310, (S)-(1-(7-amino-2-(furan-2-yl)-[1,2,4]triazolo[1,5-a][1,3,5]triazin-5-yl)pyrrolidin-2-yl)(4-(4-(2-methoxyethoxy)phenyl)piperazin-1-yl)methanone]",12
3,"Nc1nc(N2CC[C@H]2C(=O)N2CCN(CC(F)(F)C(F)(F)F)CC2)nc2nc(-c3ccco3)nn12 [Example 256, (S)-(1-(7-amino-2-(furan-2-yl)-[1,2,4]triazolo[1,5-a][1,3,5]triazin-5-yl)azetidin-2-yl)(4-(2,2,3,3,3-pentafluoropropyl)piperazin-1-yl)methanone]",1
4,"Nc1nc(N2CCC[C@H]2C(=O)N2CCN(c3ccc(F)cc3)C(=O)C2)nc2nc(-c3ccco3)nn12 [Example 236, 4-((7-amino-2-(furan-2-yl)-[1,2,4]triazolo[1,5-a][1,3,5]triazin-5-yl)-L-prolyl)-1-(4-fluorophenyl)piperazin-2-one]",2
5,"Nc1nc(N2CCC[C@H]2C(=O)N2CCC(N3CC(F)(F)C3)CC2)cc2nc(-c3ccco3)nn12 [Example 400, (S)-(1-(5-amino-2-(furan-2-yl)-[1,2,4]triazolo[1,5-c]pyrimidin-7-yl)pyrrolidine-2-yl)(4-(3,3-difluoroazetidin-1-yl)piperidin-1-yl)methanone]",14
6,"Nc1nc(N2CCC[C@H]2C(=O)N2CCC(C(=O)Nc3ccccn3)CC2)nc2nc(-c3ccco3)nn12 [Example 79, 1-((7-amino-2-(furan-2-yl)-[1,2,4]triazolo[1,5-a][1,3,5]triazin-5-yl)-L-prolyl)-N-(pyridin-2-yl)piperidin-4-carboxamide]",11
7,"CCC(C)[C@H](Nc1nc(N)n2nc(-c3ccco3)nc2n1)C(=O)N1CCN(CC(F)(F)F)CC1 (stereo partly drawn) [Example 214, (2S)-2-((7-amino-2-(furan-2-yl)-[1,2,4]triazolo[1,5-a][1,3,5]triazin-5-yl)amino)-3-methyl-1-(4-(2,2,2-trifluoroethyl)piperazin-1-yl)pentan-1-one]",5
8,"CCC(C)S(=O)(=O)N1CCN(C(=O)[C@@H]2CCCN2c2nc(N)n3nc(-c4ccco4)nc3n2)CC1 (stereo partly drawn) [Example 72, ((S)-1-(7-amino-2-(furan-2-yl)-[1,2,4]triazolo[1,5-a][1,3,5]triazin-5-yl)pyrrolidin-2-yl)(4-(sec-butylsulfonyl)piperazin-1-yl)methanone]",1
9,"Nc1nc(N2CCC[C@H]2C(=O)N2CCC(C(=O)Nc3cccc(C(F)F)c3)CC2)nc2nc(-c3ccco3)nn12 [Example 132, 1-((7-amino-2-(furan-2-yl)-[1,2,4]triazolo[1,5-a][1,3,5]triazin-5-yl)-L-prolyl)-N-(3-(difluoromethyl)phenyl)piperidin-4-carboxamide]",11
10,"Nc1nc(N2CCC[C@H]2C(=O)N2CCC(N3CCC(F)(F)CC3)CC2)nc2nc(-c3ccco3)nn12 [Example 391, (S)-(1-(7-amino-2-(furan-2-yl)-[1,2,4]triazolo[1,5-a][1,3,5]triazin-5-yl)pyrrolidin-2-yl)(4,4-difluoro-[1,4′-bipiperidin]-1′-yl) methanone]",7
11,"CC(C)NC(=O)N1CCN(C(=O)[C@@H]2CCCN2c2nc(N)n3nc(-c4ccco4)nc3n2)CC1 [Example 116, 4-((7-amino-2-(furan-2-yl)-[1,2,4]triazolo[1,5-a][1,3,5]triazin-5-yl)-L-prolyl)-N-isopropylpiperazin-1-carboxamide]",11
12,"Nc1nc(N2CCC[C@@H]2C(=O)N2CCN(Cc3ccccc3)CC2)nc2nc(-c3ccco3)nn12 [Example 95, (R)-(1-(7-amino-2-(furan-2-yl)-[1,2,4]triazolo[1,5-a][1,3,5]triazin-5-yl)pyrrolidin-2-yl)(4-benzylpiperazin-1-yl)methanone]",4990
13,"CC(F)(F)CN1CCN(C(=O)[C@@H](Nc2nc(N)n3nc(-c4ccco4)nc3n2)C2CC2)CC1 [Example 357, (S)-2-((7-amino-2-(furan-2-yl)-[1,2,4]triazolo[1,5-a][1,3,5]triazin-5-yl)amino)-2-cyclopropyl-1-(4-(2,2-difluoropropyl)piperazin-1-yl)ethan-1-one]",9
14,"C[C@H](Nc1nc(N)n2nc(-c3ccco3)nc2n1)C(=O)N1CC2(CCN(Cc3ccc(F)cc3F)CC2)C1 [Example 30, (S)-2-((7-amino-2-(furan-2-yl)-[1,2,4]triazolo[1,5-a][1,3,5]triazin-5-yl)amino)-1-(7-(2,4-difluorobenzyl)-2,7-diazaspiro[3.5]nonan-2-yl)propan-1-one]",1
15,Nc1nc(N2CCC[C@H]2C(=O)N2CCN(C(=O)C3(C(F)(F)F)CCCCC3)CC2)nc2nc(-c3ccco3)nn12 [Example 77],0.4
16,"Nc1nc(N[C@@H](Cc2ccccc2)C(=O)N2CCC(COc3ccccc3)CC2)nc2nc(-c3ccco3)nn12 [Example 3, (S)-2-((7-amino-2-(furan-2-yl)-[1,2,4]triazolo[1,5-a][1,3,5]triazin-5-yl)amino)-1-(4-(phenoxymethyl)piperidin-1-yl)-3-phenylpropan-1-one]",1
17,"CC(C)(C)C1CCC(N2CCN(C(=O)[C@@H]3CCCN3c3nc(N)n4nc(-c5ccco5)nc4n3)CC2)CC1 (stereo partly drawn) [Example 154, (S)-(1-(7-amino-2-(furan-2-yl)-[1,2,4]triazolo[1,5-a][1,3,5]triazin-5-yl)pyrrolidin-2-yl)(4-(4-(tert-butyl)cyclohexyl)piperazin-1-yl)methanone]",10
18,"Nc1nc(N2CC[C@H]2C(=O)N2CCC(C3CCN(CC(F)F)CC3)CC2)nc2nc(-c3ccco3)nn12 [Example 323, (S)-(1-(7-amino-2-(furan-2-yl)-[1,2,4]triazolo[1,5-a][1,3,5]triazin-5-yl)azetidin-2-yl)(1′-(2,2-difluoroethyl)-[4,4′-bipiperidin]-1-yl)methanone]",3
19,"Nc1nc(N2CCC[C@H]2C(=O)N2CCN(CC(F)(F)C(F)F)CC2)nc2sc(-c3ccco3)nc12 [Example 260, (S)-(1-(7-amino-2-(furan-2-yl)thiazolo[5,4-d]pyrimidin-5-yl)pyrrolidin-2-yl)(4-(2,2,3,3-tetrafluoropropyl)piperazin-1-yl)methanone]",0.9
20,"CCCCN1CCN(C(=O)[C@@H]2CCN2c2nc(N)n3nc(-c4ccc(C)o4)nc3n2)CC1 [Example 222, (S)-(1-(7-amino-2-(5-methylfuran-2-yl)-[1,2,4]triazolo[1,5-a][1,3,5]triazin-5-yl)azetidin-2-yl)(4-butylpiperazin-1-yl)methanone]",8
21,"CC(C)(F)CN1CCN(C(=O)[C@@H]2CCCN2c2nc(N)n3nc(-c4ccco4)nc3n2)CC1 [Example 26, (S)-(1-(7-amino-2-(furan-2-yl)-[1,2,4]triazolo[1,5-a][1,3,5]triazin-5-yl)pyrrolidin-2-yl)(4-(2-fluoro-2-methylpropyl)piperazin-1-yl)methanone]",4
22,"Nc1nc(N2CCC[C@H]2C(=O)N2CCC(C3CCN(CC(F)F)CC3)CC2)nc2nc(-c3ccco3)nn12 [Example 287, (S)-(1-(7-amino-2-(furan-2-yl)-[1,2,4]triazolo[1,5-a][1,3,5]triazin-5-yl)pyrrolidin-2-yl)(1′-(2,2-difluoroethyl)-[4,4′-bipiperidin]-1-yl)methanone]",3
23,"COC[C@H](Nc1nc(N)n2nc(-c3ccco3)nc2n1)C(=O)N1CCN(CC(F)F)CC1 [Example 396, (S)-2-((7-amino-2-(furan-2-yl)-[1,2,4]triazolo[1,5-a][1,3,5]triazin-5-yl)amino)-1-(4-(2,2-difluoroethyl)piperazin-1-yl)-3-methoxypropan-1-one]",29
